# Data from ChEMBL document CHEMBL1146222, “Cyclic depsipeptides, ichthyopeptins A and B, from Microcystis ichthyoblabe” (J Nat Prod, 2007).
# System: Influenza A virus
# Assay: Antiviral activity against Influenza A virus (A/WSN/33/London (H1N1)) in MDCK cells after 72 hrs by neutral red dye uptake assy
# Format: functional, organism-based
structure (smiles),measurement,value
NC12CC3CC(CC(C3)C1)C2 [AMANTADINE],IC50,15 µg/mL
